The source of these data is paper PMC10095301, “To Target or Not to Target Schistosoma mansoni Cyclic Nucleotide Phosphodiesterase 4A?” (International Journal of Molecular Sciences, 2023).

Values joined by “and” are separate entries in the source; they are usually repeats but may differ in a detail not shown here. Equal values may be shown once. Read-outs that look alike come from different tables or passages of the source. Marks after values point to notes of the source that are not given here.

The target in one series is SmPDE4A_CD (Schistosoma mansoni, UniProt A0ACM8RGL1). In words: biochemical. The settings on record: for inhibition at 10 µM: read-out: SmPDE4A_CD Inhibition at 10 µM (%). The protocol: (§1) Enzyme velocity was plotted against substrate concentration, and Km values were determined using GraphPad Prism software version 8, analyzing the Michaelis–Menten kinetics of the enzyme.
(§2) Inhibitors were initially tested at 10 µM (triplicate measurements/assay, n = 3). In follow-up experiments, dose-response curves were made in the range 100 µM–10 pM (triplicate measurements/assay, n = 3). […] The reaction was terminated by the addition of 5 µL Lonza Stop Buffer supplemented with 10 µM pan-PDE4 inhibitor NPD-0001. Subsequently, 5 µL of Lonza Detection reagent (diluted to 80% with reaction buffer) was added, and the reaction was incubated for 10 min at 300 rpm. Luminescence was read with a Victor3 luminometer using a 0.1 s/well program. […] The Cheng-Prussoff equation, embedded in the GraphPad Prism software, was used to convert IC50 values to pKi values.

The target in a further series is SmPDE4A_FL (Schistosoma mansoni, UniProt A0ACM8RGL1). Put plainly: biochemical. The note with it: read-out: SmPDE4A_FL inhibition at 10 µM. As for the experimental part: as §1, §2
The subject of series [1] is S. mansoni. Put plainly: In vitro anti-S. mansoni assay: adult worm killing. The settings on record: for %Worm Killing (Female) / %Worm Killing (Male): day 5. The series is classed as cell-based, Schistosoma mansoni. The protocol: Infected Syrian golden hamsters (Mesocrietus auratus) bred and maintained at the Schistosome Biology Supply Center (SBSC) of Theodor Bilharz Research Institute (TBRI), Giza, Egypt, were used. Animals were housed under controlled biological conditions. Animal experiments were conducted in accordance with the Guide for Care and Use of Laboratory Animals and were approved by the Institutional Review Board (IRB) of TBRI. Seven weeks post-infection, hamsters were anesthetized using pentobarbital in a dose of 200 mg/kg body weight and 2 hamsters were sacrificed to obtain the required number of worms. The animals were then perfused using a normal saline solution (0.9% NaCl), and worms were collected. Six to 8 worms per well were placed in a 12-well tissue culture plate, taking care to guarantee 1 to 2 worm pairs/well and fresh RPMI-1640 medium (plus glutamine, 20% newborn calf serum and antibiotics [streptomycin, penicillin and gentamicin]), containing the indicated concentration of the test compound, was added. Worms were incubated overnight in a CO2 incubator at 37 °C. On the 2nd day, worms were examined by microscopy, washed 3 times with normal saline, a fresh medium was added, and the incubation was continued. On the 3rd day, worm motility was observed, and on the 4th day, the medium was again changed. On day 5 (end of the observation period), worms were microscopically examined for their motility and appearance. Each concentration was tested in duplicate wells, and the final recording of percent worm mortality was determined as the number of dead worms [contracted and opaque] divided by the total number of worms ×100).
(§3) For these experiments, roflumilast and NPD-0001 were freshly prepared in different concentrations (100 µM, 50 µM, 25 µM 10 µM and 5 µM) in RPMI-1640 medium and tested in 12-well tissue culture plates for S. mansoni survival and ovipositing capacity. To assess the effects of roflumilast and NPD-0001 on egg production in vitro, we used 12-well tissue culture plates containing 6–8 worms, including at least 1 or 2 worm couples and fresh RPMI-1640 medium containing the indicated concentration of the test compound. Worms were incubated overnight in a CO2 incubator at 37 °C. On the 2nd day, worms were washed 3 times with normal saline, fresh medium was added, and the incubation was continued. Each concentration was tested in duplicate wells, and on the 4th day, eggs were counted and discarded, and the medium was changed. On day 5 (the end of the observation period), newly deposited eggs were counted. The final egg number is the total count of days 4 and 5 for each concentration tested. Statistical analysis was done with Student’s unpaired, 2-tailed t-test.

The subject of series [2] is S. mansoni. In words: In vitro anti-S. mansoni assay: oviposition (egg count). The series is classed as cell-based, Schistosoma mansoni. The note with it: eggs of days 4 and 5. As for the experimental part:
as §3

Series [3] in a line: Cytotoxicity on MRC-5 cells. The class given is cell-based. The settings on record: human, MRC-5SV40 lung fibroblasts, read-out: MRC-5 pIC50 (converted). An excerpt:
Table 4 Effect of SmPDE4A inhibitors on S. mansoni survival and oviposition. | column: MRC-5 pIC50

Series [4] deals with S. mansoni. Details: method as in PMID 31711973. The settings on record: data from Botros et al. and this study, cited from earlier work.
The subject of series [5] is S. mansoni. On the set-up: method as in PMID 31711973. The settings on record: data from Botros et al. and this study, cited from earlier work. The source holds these as a separate data set.
The next series concerns the target SmPDE4A. On the set-up: method as in PMID 28704396. The note with it: estimated value; cited from earlier work.
[6] abbreviates: SmPDE4A_CD pKi, mean ± SEM, n ≥ 3, cAMP at 2 × Km (6 µM), Cheng-Prusoff.
[7] abbreviates: read-out: SmPDE4A_CD pKi (converted).

Regarding `COc1ccc(C2=NN(C3CCCCCC3)C(=O)[C@H]3CC=CC[C@@H]23)cc1OCCCCOc1ccc(-c2nnn[nH]2)cc1` [NPD-0001], the figures for the IC50 (against SmPDE4A_CD; in series [3]) were 1580 nM and 7940 nM, respectively. For the same compound, the Ki on SmPDE4A_CD (setting [6]) is 126 nM. Also, the inhibition at 10 µM at SmPDE4A_CD and on SmPDE4A_FL was over 50% throughout. In addition, the “%Worm Killing (Female)” value in the series with S. mansoni [1] (5 µM), in the series with S. mansoni [1] (10 µM), with S. mansoni [1] (25 µM) and in the series with S. mansoni [1] (50 µM) was 0% throughout. Further, the “%Worm Killing (Male)” value came to 0% with S. mansoni [1] (5 µM); 0% with S. mansoni [1] (10 µM); 0% in the series with S. mansoni [1] (25 µM); 0% with S. mansoni [1] (50 µM); 63% with S. mansoni [1] (100 µM). The “% Oviposition Reduction” value with S. mansoni [2] (5 µM) is 0%; in the series with S. mansoni [2] (10 µM), 0%; with S. mansoni [2] (25 µM), 13%; with S. mansoni [2] (50 µM) it was 23%; with S. mansoni [2] (100 µM), 100 * %.
For `COc1ccc(C2=NN(C3CCN(C(=O)CN4C(=O)CCC4=O)CC3)C(=O)C3CC=CCC23)cc1OC` (stereo not drawn) [NPD-0007], the inhibition at 10 µM at SmPDE4A_CD (10 µM compound) is over 50%; on SmPDE4A_FL (10 µM compound, toolbox screen) it was over 50%. Besides, at SmPDE4A_CD (setting [7]), the Ki is 501 nM. At SmPDE4A_CD (representative dose-response curves, Figure 4B, read-out: pIC50 inhibition of enzymatic activity of SmPDE4A_CD (converted)), the IC50 was 3980 nM.
Turning to `COc1ccc(C(=O)Nc2c(Cl)cncc2Cl)cc1OC` [NPD-0446], at SmPDE4A_CD (setting [7]), the Ki is 3980 nM.
Consider `COc1ccc(C(=O)Nc2c(Cl)cncc2Cl)cc1OCc1ccccc1` [NPD-0546], for which the inhibition at 10 µM at SmPDE4A_CD (10 µM compound) amounted to 8%.
The same measure, in the same setting: the same measure for `COc1ccc(C(=O)Nc2c(Cl)cncc2Cl)cc1` [NPD-0548]: 16%; for `COc1ccc(C(=O)Nc2c(Cl)cncc2Cl)cc1Cl` [NPD-1180]: 9%.
As to `O=C(Nc1ccncc1Cl)c1ccc(OC(F)F)c(OCC2CC2)c1` [NPD-1204], the Ki on SmPDE4A_CD (setting [7]) is 251 nM.
In the case of `O=C(Nc1cnccc1Cl)c1ccc(OC(F)F)c(OCC2CC2)c1` [NPD-1205], the inhibition at 10 µM at SmPDE4A_CD (10 µM compound) was determined as 21%. The “reduction in SmPDE4A inhibitory potency (fold)” value at SmPDE4A_CD (relative to roflumilast) was “three-fold reduction in potency”.
At SmPDE4A_CD (setting [6]), `O=C(Nc1c(Cl)c[n+]([O-])cc1Cl)c1ccc(OC(F)F)c(OCC2CC2)c1` [NPD-2980, roflumilast N-oxide] gave a Ki of 63.1 nM.
As to `COc1ccc(NC(=O)c2ccc(OC(F)F)c(OCC3CC3)c2)cc1Cl` [NPD-3000], at SmPDE4A_CD (10 µM compound), the inhibition at 10 µM was 15%.
The same measure, in the same setting: the same measure for `O=C(Nc1cccc(Cl)c1)c1ccc(OC(F)F)c(OCC2CC2)c1` [NPD-3075]: 4%.
In the case of `O=C(Nc1ccncc1)c1ccc(OC(F)F)c(OCC2CC2)c1` [NPD-3076], on SmPDE4A_CD (10 µM compound), the inhibition at 10 µM is 46%.
For the compound `O=C(Nc1ccccc1Cl)c1ccc(OC(F)F)c(OCC2CC2)c1` [NPD-3080], the Ki at SmPDE4A_CD (setting [7]) is 2000 nM. Moreover, the “reduction in SmPDE4A inhibitory potency (fold)” value on SmPDE4A_CD (relative to NPD-1204) was determined as 10 fold.
`O=C(Nc1c(Cl)cncc1Cl)c1ccc(F)c(OCC2CC2)c1` [NPD-3093]: the Ki at SmPDE4A_CD (setting [7]) is 2510 nM.
Still for that read-out and setting: under `COc1ccc(C(=O)Nc2c(Cl)cncc2Cl)cc1OCC1CC1` [NPD-3094] stands 398 nM.
On the same count and under the same terms, under `O=C(Nc1c(Cl)cncc1Cl)c1ccc(Cl)c(OCC2CC2)c1` [NPD-3096] stands 794 nM.
Turning to `COc1ccc(C(=O)Nc2c(Cl)cncc2Cl)cc1OC1CCCC1` [piclamilast], on SmPDE4A_CD, the IC50 was 3160 nM and the inhibition at 10 µM was over 50%. The Ki on SmPDE4A_CD (setting [6]) was 316 nM and 63.1 nM. The inhibition at 10 µM at SmPDE4A_FL is over 50%.
`O=C(C1CCCCC1)N1CC(=O)N2CCc3ccccc3C2C1` (stereo not drawn) [praziquantel] registered a worm killing in the series on S. mansoni [1] (5 µM (lowest concentration tested), sex not specified) of 100%. Besides, the “% Oviposition Reduction” value with S. mansoni [2] (5 µM) was 100%.
Regarding `O=C(Nc1c(Cl)cncc1Cl)c1ccc(OC(F)F)c(OCC2CC2)c1` [roflumilast], the IC50 at SmPDE4A_CD was 631 nM; in series [3], over 63100 nM. Moreover, the Ki at SmPDE4A_CD (setting [6]) is 79.4 nM. The inhibition at 10 µM on SmPDE4A_CD and on SmPDE4A_FL was over 50% each time. Besides, the “%Worm Killing (Female)” value in the series on S. mansoni [4] (5 µM), with S. mansoni [4] (10 µM), with S. mansoni [4] (25 µM), with S. mansoni [4] (50 µM) and in the series on S. mansoni [4] (100 µM) was 0% each time. Also, the “%Worm Killing (Male)” value in the series with S. mansoni [4] (5 µM), with S. mansoni [4] (10 µM), in the series with S. mansoni [4] (25 µM), in the series on S. mansoni [4] (50 µM) and with S. mansoni [4] (100 µM) was 0% in each case. For the same compound, the “% Oviposition Reduction” value in the series on S. mansoni [5] (5 µM) was 35 * %; with S. mansoni [5] (10 µM), 39 * %; in the series with S. mansoni [5] (25 µM), 42 * %; with S. mansoni [5] (50 µM), 49 * %; in the series with S. mansoni [5] (100 µM), 52 * %. In addition, the “SmPDE4A pKi (estimated)” value on SmPDE4A is reported as 7.8.

What is called inhibition is the percentage by which the read-out fell short of the control.
